Data taken from patent US20250034586A1, “METHOD FOR EDITING BANANA GENES” (Tropic Biosciences UK Limited, priority 2021, published 2025).

Legend:
Potato somatic cells = settings: cited from earlier work
Rice protoplasts = settings: for 10dd; cited from earlier work
[1] = tested on: Banana embryogenic cell suspensions (ECS); test: CSF kill curves in banana ECS (number of embryos after short CSF treatment); assay type: cell-based; settings: for Number of banana embryos developed (Avg): 3 months after treatment
Procedure: Banana embryogenic cell suspensions (ECS) were pelleted in a falcon tube and mixed with CS (cell suspension) medium to a final cell density of 1-3%. An equal volume of the mixture was split into 6 flasks and the relevant amount of CSF was added to the final concentrations of 0, 10, 20, 50, 100 and 500 μg/L (1st kill curve) or 0, 0.5, 5, 50 and 100 mg/L (2nd kill curve). The ECS-CSF mixtures were placed/inoculated in 6 well plates (5 mL per well) and incubated at 65 rpm in the dark for 3, 5, 10, 15 days at 25° C.
At each time point, the ECS were collected in a cell strainer and washed with CS (cell suspension) medium to remove all the CSF. The cells were collected from the strainer and inoculated into embryo developing media (EDM) plates and developed for 2-3 months (until fully developed embryos were observed). The cells/embryos were subcultured every month. Each treatment was performed in triplicate and treated independently.
The number of embryos was assessed 2-3 months after CSF treatment. The embryos were counted under a stereo microscope using a 50-square grid to help the counting. For plates with too many embryos, only 3 squares from the 50 were counted and then the number of embryos was normalised for all of the plate. For the other plates all embryos were counted. Mean values±standard deviation (Stdev) were obtained from 3 technical replicates.

[2] = tested on: Marchantia polymorpha spores; settings: (180 μg/L) for 7dd; cited from earlier work

COc1nc(C)nc(NC(=O)NS(=O)(=O)c2ccccc2Cl)n1 [CSF, chlorsulfuron]
CSF concentration reported to be effective (Potato somatic cells): 20 µg/L
CSF concentration reported to be effective (Rice protoplasts): 3.6 µg/L
Embryo number, 1st CSF kill curve ([1]; 0, 10, 20, 50, 200, 500 μg/L CSF for 3, 5, 10 and 15 days): major differences in embryo number were not observed
Fold-change non-CSF/+CSF (number of embryos) ([1]; 0.5 mg/L CSF for 5dd): 2.9
Number of banana embryos developed (Avg) ([1]; 0.5 mg/L CSF for 5dd, 3 technical replicates): 1109
Fold-change non-CSF/+CSF (number of embryos) ([1]; 0.5 mg/L CSF for 10dd): 32.6
Number of banana embryos developed (Avg) ([1]; 0.5 mg/L CSF for 10dd): 127
Fold-change non-CSF/+CSF (number of embryos) ([1]; 0.5 mg/L CSF for 15dd): 22.3
Number of banana embryos developed (Avg) ([1]; 0.5 mg/L CSF for 15dd): 217
Fold-change non-CSF/+CSF (number of embryos) ([1]; 5 mg/L CSF for 5dd): 24.9
Number of banana embryos developed (Avg) ([1]; 5 mg/L CSF for 5dd): 127
Fold-change non-CSF/+CSF (number of embryos) ([1]; 5 mg/L CSF for 10dd): 229.9
Number of banana embryos developed (Avg) ([1]; 5 mg/L CSF for 10dd): 18
Fold-change non-CSF/+CSF (number of embryos) ([1]; 5 mg/L CSF for 15dd): 167.0
Number of banana embryos developed (Avg) ([1]; 5 mg/L CSF for 15dd): 29
Decrease in the number of embryos ([1]; 5 mg/L CSF for 10 days): higher than 200 ×
Fold-change non-CSF/+CSF (number of embryos) ([1]; 50 mg/L CSF for 5dd): 54.5
Number of banana embryos developed (Avg) ([1]; 50 mg/L CSF for 5dd): 58
Fold-change non-CSF/+CSF (number of embryos) ([1]; 50 mg/L CSF for 10dd): 459.8
Number of banana embryos developed (Avg) ([1]; 50 mg/L CSF for 10dd): 9
Fold-change non-CSF/+CSF (number of embryos) ([1]; 50 mg/L CSF for 15dd): 1210.5
Number of banana embryos developed (Avg) ([1]; 50 mg/L CSF for 15dd): 4
Fold-change non-CSF/+CSF (number of embryos) ([1]; 100 mg/L CSF for 5dd): 55.5
Number of banana embryos developed (Avg) ([1]; 100 mg/L CSF for 5dd): 57
Fold-change non-CSF/+CSF (number of embryos) ([1]; 100 mg/L CSF for 10dd): 517.3
Number of banana embryos developed (Avg) ([1]; 100 mg/L CSF for 10dd): 8
Fold-change non-CSF/+CSF (number of embryos) ([1]; 100 mg/L CSF for 15dd): 345.9
Number of banana embryos developed (Avg) ([1]; 100 mg/L CSF for 15dd): 14
CSF concentrations at which colour changes in banana ECS were observed ([1]; 2nd kill curve, after treatment): higher than 5 mg/L
Minimal lethal dose (concentration reducing number of embryos 100×; measure of success met) ([1]; 10 days of treatment): 5 mg/L
Killing of banana cells ([1]; five days of treatment, 2nd kill curve): inefficient for killing banana cells
CSF concentration reported to be effective [2]: 0.5 µM
